Data reported in US7361658B2, “2-acylaminothiazole derivative or salt thereof” (Astellas Pharma Inc., priority 2003, dated 2008).

Experiments:
human c-mpl-Ba/F3 cells [1] = molecular target: T1, human c-mpl-Ba/F3 cells (Homo sapiens, UniProt P40238); experiment: Human c-mpl-Ba/F3 cell growth test; format: cell-based; conditions: for Pot: concentration at which cell growth is accelerated by 30% of the maximum cell growth activity of compound A, 24 h culture; for Emax: maximum cell growth activity, maximum of compound A defined as 100%, read-out: Efficacy
T1 construct: expressed in transfected cells; host or cells: Ba/F3 (murine pro-B cells) expressing human c-mpl
T1 sequence (P40238 26-635): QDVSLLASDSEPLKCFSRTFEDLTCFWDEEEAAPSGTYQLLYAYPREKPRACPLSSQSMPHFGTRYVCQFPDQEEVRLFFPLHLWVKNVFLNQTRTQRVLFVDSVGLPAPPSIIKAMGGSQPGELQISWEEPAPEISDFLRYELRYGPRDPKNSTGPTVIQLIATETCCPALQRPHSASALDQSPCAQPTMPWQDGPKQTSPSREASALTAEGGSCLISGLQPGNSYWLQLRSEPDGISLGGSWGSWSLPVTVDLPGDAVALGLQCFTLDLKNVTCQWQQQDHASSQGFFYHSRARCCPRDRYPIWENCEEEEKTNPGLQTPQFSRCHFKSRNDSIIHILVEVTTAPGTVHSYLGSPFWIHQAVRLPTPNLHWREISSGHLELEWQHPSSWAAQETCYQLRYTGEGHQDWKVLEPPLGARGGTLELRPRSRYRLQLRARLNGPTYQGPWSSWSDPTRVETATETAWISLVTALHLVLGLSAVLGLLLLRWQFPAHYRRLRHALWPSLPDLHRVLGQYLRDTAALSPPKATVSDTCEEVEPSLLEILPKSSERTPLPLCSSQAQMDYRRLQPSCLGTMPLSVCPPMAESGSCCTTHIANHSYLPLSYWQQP
Procedure: (i) Human c-mpl-Ba/F3 Cell Growth Test
In a 96-well microplate, 2×10^5 cells/ml of human c-mpl-Ba/F3 cells were cultured at 37° C. in 10% fetal bovine serum-containing RPMI1640 medium (100 μl/well) containing each test compound at each concentration. After 24 hours from the start-up of culture, 10 μl/well of WST-1/1-methoxy PMS (cell counting kit, Dojin) was added. Immediately after addition and 2 hours after addition, absorbance of A450/A650 was measured with a microplate reader (Model 3350: Bio-Rad), and an increase in absorbance for 2 hours was defined as a growth activity of each test compound.
pot: Concentration of each test compound at which to accelerate cell growth by 30% of a maximum cell growth activity of compound A (compound A and rhTPO in rhTPO)
Efficacy: Maximum cell growth activity of each test compound when a maximum cell growth activity of compound A (compound A and rhTPO in rhTPO) is defined as 100%.
Compound A refers to a compound in Example 9 of the foregoing Patent Document 10.

Human CD34+ cells = experiment: Test for measuring a function of accelerating formation of megakaryocytic colonies; format: cell-based; conditions: megakaryocytic colony formation, 10 to 14 days, MegaCult-C
Procedure: (ii) Test for Measuring a Function of Accelerating Formation of Megakaryocytic Colonies
Human CD34^+ cells were cultured in a 2-well chamber slide in the presence of a test product at 37° C. for from 10 to 14 days using MegaCult™-C (StemCell Technologies). After dehydration and fixation were conducted according to the attached manual, dying was conducted with an anti-glycoprotein IIb/IIIa antibody. The number of colonies for 1 well was counted by a microscope on condition that a population of 3 or more dyed megakaryocytes was one colony. An EC30 value of each test compound was calculated from a dose curve.

human c-mpl-Ba/F3 cells [2] = molecular target: T1, human c-mpl-Ba/F3 cells; experiment: Mouse oral administration test: human c-mpl-Ba/F3 cell growth activity of a plasma after oral administration; format: in vivo; conditions: male ICR mouse, plasma 2 h after administration, maximum activity of each test compound = 100%
Procedure: (iii) Mouse Oral Administration Test
3 mg/kg or 10 mg/kg (100 mg/kg in Comparative Compounds 1 to 3) of a test compound dissolved or suspended in a 0.5% methylcellulose aqueous solution was orally administered to a male ICR mouse. After 2 hours from administration, a blood was sampled from the subabdominal large vein using 1/10-volume 3.8% sodium citrate as an anticoagulant. Centrifugation was performed at 12,000 rpm for 3 minutes. The resulting plasma was heated at 56° C. for 30 minutes, and added to a system of the human c-mpl-Ba/F3 cell growth test described in (i) such that the final concentration of the plasma reached 0.3%, 1% or 3% (10% in Comparative Compounds 1 to 3) to measure a cell growth activity. The cell growth activity (%) of each plasma was measured when the maximum cell growth activity of each test compound was defined as 100%.

Row | Structure (SMILES) | Pot (human c-mpl-Ba/F3 cells [1]) [nM] | Emax (human c-mpl-Ba/F3 cells [1]) [%] | Cell growth activity (human c-mpl-Ba/F3 cells [2]; 3 mg/kg p.o., dilution rate 3%) | Cell growth activity (human c-mpl-Ba/F3 cells [2]; 3 mg/kg p.o., dilution rate 1%) [%] | Cell growth activity (human c-mpl-Ba/F3 cells [2]; 10 mg/kg p.o., dilution rate 3%) [%] | EC30 value (Human CD34+ cells) [nM]
1 | CCCCN(C)Cc1sc(NC(=O)c2cnc(N3CCC(C(=O)O)CC3)c(Cl)c2)nc1-c1cc(Cl)cs1 [Example 71, 1-(5-{[5-{[butyl(methyl)amino]methyl}-4-(4-chlorothiophen-2-yl)thiazol-2-yl]carbamoyl}-3-chloro-2-pyridyl)piperidin-4-carboxylic acid] | 2.0 | 110 | ≧80% | – | – | 20
2 | CN(Cc1sc(NC(=O)c2cnc(N3CCC(C(=O)O)CC3)c(Cl)c2)nc1-c1cc(Cl)cs1)C1CCC1 [Example 100, 1-{3-chloro-5-[(4-(4-chlorothiophen-2-yl)-5-{[cyclobutyl(methyl)amino]methyl}thiazol-2-yl)carbamoyl]-2-pyridyl}piperidine-4-carboxylic acid] | 2.9 | 117 | ≧80% | – | – | 34
3 | CC(C)N(C)Cc1sc(NC(=O)c2cnc(N3CCC(C(=O)O)CC3)c(Cl)c2)nc1-c1cc(Cl)cs1 [Example 104, 1-{3-chloro-5-[(4-(4-chlorothiophen-2-yl)-5-{[isopropyl(methyl)amino]methyl}thiazol-2-yl)carbamoyl]-2-pyridyl}piperidine-4-carboxylic acid] | 3.5 | 105 | – | 63 | – | 36
4 | C[C@H]1CCCN1Cc1sc(NC(=O)c2cnc(N3CCC(C(=O)O)CC3)c(Cl)c2)nc1-c1cc(Cl)cs1 [Example 106, 1-{3-chloro-5-[(4-(4-chlorothiophen-2-yl)-5-{[(2S)-2-methylpyrrolidin-1-yl]methyl}thiazol-2-yl)carbamoyl]-2-pyridyl}piperidine-4-carboxylic acid] | 2.1 | 112 | – | 63 | – | 23

Further lines, with some results ahead:

Row | Pot (human c-mpl-Ba/F3 cells [1]) [nM] | Emax (human c-mpl-Ba/F3 cells [1]) [%] | Cell growth activity (human c-mpl-Ba/F3 cells [2]; 3 mg/kg p.o., dilution rate 3%) | Cell growth activity (human c-mpl-Ba/F3 cells [2]; 3 mg/kg p.o., dilution rate 1%) [%] | Cell growth activity (human c-mpl-Ba/F3 cells [2]; 10 mg/kg p.o., dilution rate 3%) [%] | Structure (SMILES) | EC30 value (Human CD34+ cells) [nM]
5 | 6.1 | 99 | – | – | 29 | CCCCN(C)Cc1sc(NC(=O)c2cnc(N3CCNC(=O)C3)c(Cl)c2)nc1-c1cc(Cl)cs1 [Example 153, N-[5-{[butyl(methyl)amino]methyl}-4-(4-chlorothiophen-2-yl)thiazol-2-yl]-5-chloro-6-(3-oxopiperazin-1-yl)nicotinamide] | –
6 | 3.2 | 98 | – | – | – | C[C@@H]1CCCN1Cc1sc(NC(=O)c2cnc(N3CCC(C(=O)O)CC3)c(F)c2)nc1-c1cc(Cl)cs1 [Example 315, 1-{5-[(4-(4-chlorothiophen-2-yl)-5-{[(2R)-2-methylpyrrolidin-1-yl]methyl}thiazol-2-yl)carbamoyl]-3-fluoro-2-pyridyl}piperidin-4-carboxylic acid] | 45
